Results as given in US11840686B2, “Modulation of prekallikrein (PKK) expression” (Ionis Pharmaceuticals, Inc., priority 2013, dated 2023).
Strand notation (5' to 3'): a small letter for the sugar, then the base; units joined by * are phosphorothioate-linked, units joined directly phosphodiester-linked; [ ] holds rarer units or linkages, { } end groups; capitals alone tell only the bases. e = 2'-O-(2-methoxyethyl) (MOE); k = constrained ethyl (cEt); [5mC] = 5-methylcytosine; d = 2'-deoxy (DNA)

Tested on: human PKK mRNA
Assay: Antisense inhibition of human PKK mRNA in HepaRG cells, 1,000 nM, MOE/deoxy/cEt oligonucleotides (Example 3)
Assay type: cell-based
Conditions: HepaRG cells, electroporation with 1,000 nM antisense oligonucleotide, approx. 24 hours, PKK mRNA by RT-PCR (RTS3454), relative to untreated control cells; Table 25 experiment
In short: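 HepaRG cells at 20,000 per well electroporated with 1,000 nM 16-mer MOE/cEt/deoxy gapmers (phosphorothioate, 5-methylcytosine). After about 24 h, PKK mRNA measured by qRT-PCR with primer probe set RTS3454, normalized to RIBOGREEN total RNA. Reported as percent inhibition versus untreated cells.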

| Substance | % inhibition |
| --- | --- |
| 548151 (eG*eG*kG*d[5mC]*dT*dT*d[5mC]*dA*dG*d[5mC]*d[5mC]*dA*dG*kA*k[5mC]*eA; antisense) [compound 548151] | 35% |
| 548152 (e[5mC]*eG*kG*dG*d[5mC]*dT*dT*d[5mC]*dA*dG*d[5mC]*d[5mC]*dA*kG*kA*e[5mC]; antisense) [compound 548152] | 32% |
| 548153 (eT*eG*k[5mC]*dT*dG*dA*dA*dA*dG*d[5mC]*dG*dG*dG*k[5mC]*kT*eT; antisense) [compound 548153] | 44% |
| 548154 (eG*eT*kG*d[5mC]*dT*dG*dA*dA*dA*dG*d[5mC]*dG*dG*kG*k[5mC]*eT; antisense) [compound 548154] | 7% |
| 548156 (eT*e[5mC]*kA*dG*d[5mC]*d[5mC]*d[5mC]*d[5mC]*dT*dG*dG*dT*dT*kA*k[5mC]*eG; antisense) [compound 548156] | 0% |
| 548157 (eA*eT*kT*dG*dT*d[5mC]*dA*dG*d[5mC]*d[5mC]*d[5mC]*d[5mC]*dT*kG*kG*eT; antisense) [compound 548157] | 7% |
| 548158 (eG*e[5mC]*kA*dT*dT*dG*dT*d[5mC]*dA*dG*d[5mC]*d[5mC]*d[5mC]*k[5mC]*kT*eG; antisense) [compound 548158] | 18% |
| 548159 (e[5mC]*eG*k[5mC]*dA*dT*dT*dG*dT*d[5mC]*dA*dG*d[5mC]*d[5mC]*k[5mC]*k[5mC]*eT; antisense) [compound 548159] | 59% |
| 548160 (eT*e[5mC]*kG*d[5mC]*dA*dT*dT*dG*dT*d[5mC]*dA*dG*d[5mC]*k[5mC]*k[5mC]*e[5mC]; antisense) [compound 548160] | 60% |
| 548161 (e[5mC]*eT*k[5mC]*dG*d[5mC]*dA*dT*dT*dG*dT*d[5mC]*dA*dG*k[5mC]*k[5mC]*e[5mC]; antisense) [compound 548161] | 59% |
| 548162 (e[5mC]*e[5mC]*kT*d[5mC]*dG*d[5mC]*dA*dT*dT*dG*dT*d[5mC]*dA*kG*k[5mC]*e[5mC]; antisense) [compound 548162] | 25% |
| 548163 (eA*e[5mC]*k[5mC]*dT*d[5mC]*dG*d[5mC]*dA*dT*dT*dG*dT*d[5mC]*kA*kG*e[5mC]; antisense) [compound 548163] | 46% |
| 548164 (eG*eA*k[5mC]*d[5mC]*dT*d[5mC]*dG*d[5mC]*dA*dT*dT*dG*dT*k[5mC]*kA*eG; antisense) [compound 548164] | 40% |

Same assay, conditions: Table 19; HepaRG cells, electroporation with 1,000 nM antisense oligonucleotide, approximately 24 hours; PKK mRNA by RT-PCR (RTS3454), relative to untreated control cells

| Substance | % inhibition |
| --- | --- |
| 548105 (antisense e[5mC]*eA*kT*dG*dT*dA*d[5mC]*dT*d[5mC]*dA*dG*d[5mC]*dG*kA*k[5mC]*eT) [compound 548105] | 49% |
| 548107 (antisense eT*e[5mC]*k[5mC]*dA*dT*dG*dT*dA*d[5mC]*dT*d[5mC]*dA*dG*k[5mC]*kG*eA) [compound 548107] | 76% |
| 548108 (antisense eG*eA*kG*d[5mC]*dT*dT*dT*dT*d[5mC]*d[5mC]*dA*dT*d[5mC]*kA*k[5mC]*eT) [compound 548108] | 61% |
| 548110 (antisense eT*eG*k[5mC]*dA*dT*d[5mC]*dT*dG*dA*dG*d[5mC]*dT*dT*kT*kT*e[5mC]) [compound 548110] | 62% |
| 548111 (antisense eG*eA*k[5mC]*dT*dG*d[5mC]*dA*dT*d[5mC]*dT*dG*dA*dG*k[5mC]*kT*eT) [compound 548111] | 53% |
| 548112 (antisense eG*eT*kG*dA*d[5mC]*dT*dG*d[5mC]*dA*dT*d[5mC]*dT*dG*kA*kG*e[5mC]) [compound 548112] | 23% |
| 548113 (antisense eG*eG*kT*dG*dA*d[5mC]*dT*dG*d[5mC]*dA*dT*d[5mC]*dT*kG*kA*eG) [compound 548113] | 56% |
| 548114 (antisense eT*eG*kG*dT*dG*dA*d[5mC]*dT*dG*d[5mC]*dA*dT*d[5mC]*kT*kG*eA) [compound 548114] | 70% |
| 548115 (antisense e[5mC]*eA*kT*dG*d[5mC]*dT*dG*dG*dT*dG*dA*d[5mC]*dT*kG*k[5mC]*eA) [compound 548115] | 76% |
| 548116 (antisense eT*e[5mC]*kA*dT*dG*d[5mC]*dT*dG*dG*dT*dG*dA*d[5mC]*kT*kG*e[5mC]) [compound 548116] | 3% |
| 548117 (antisense e[5mC]*eT*k[5mC]*dA*dT*dG*d[5mC]*dT*dG*dG*dT*dG*dA*k[5mC]*kT*eG) [compound 548117] | 73% |
| 548118 (antisense eT*e[5mC]*kT*d[5mC]*dA*dT*dG*d[5mC]*dT*dG*dG*dT*dG*kA*k[5mC]*eT) [compound 548118] | 47% |
| 548119 (antisense eT*eG*kG*dA*d[5mC]*dT*dG*d[5mC]*dT*dT*d[5mC]*dT*d[5mC]*kA*kT*eG) [compound 548119] | 25% |
| 548121 (antisense eT*e[5mC]*kT*dG*dG*dA*d[5mC]*dT*dG*d[5mC]*dT*dT*d[5mC]*kT*k[5mC]*eA) [compound 548121] | 64% |
| 548122 (antisense e[5mC]*eT*k[5mC]*dT*dG*dG*dA*d[5mC]*dT*dG*d[5mC]*dT*dT*k[5mC]*kT*e[5mC]) [compound 548122] | 55% |
| 548123 (antisense eA*eG*kA*d[5mC]*dT*d[5mC]*dT*dG*dG*dA*d[5mC]*dT*dG*k[5mC]*kT*eT) [compound 548123] | 49% |
| 548124 (antisense eT*eA*kG*dA*d[5mC]*dT*d[5mC]*dT*dG*dG*dA*d[5mC]*dT*kG*k[5mC]*eT) [compound 548124] | 51% |
| 548126 (eT*eG*k[5mC]*d[5mC]*dT*dA*dG*dA*d[5mC]*dT*d[5mC]*dT*dG*kG*kA*e[5mC]; antisense) [compound 548126] | 19% |
| 548127 (eT*eT*kG*d[5mC]*d[5mC]*dT*dA*dG*dA*d[5mC]*dT*d[5mC]*dT*kG*kG*eA; antisense) [compound 548127] | 60% |
| 548129 (eT*eT*kT*dG*dA*d[5mC]*dT*dT*dG*dA*dA*d[5mC]*dT*k[5mC]*kA*eG; antisense) [compound 548129] | 35% |

| Substance | % inhibition |
| --- | --- |
| 548130 (eA*eT*kT*dT*dG*dA*d[5mC]*dT*dT*dG*dA*dA*d[5mC]*kT*k[5mC]*eA; antisense) [compound 548130] | 27% |
| 548131 (eA*eA*kT*dT*dT*dG*dA*d[5mC]*dT*dT*dG*dA*dA*k[5mC]*kT*e[5mC]; antisense) [compound 548131] | 45% |
| 548132 (eG*eA*kA*dT*dT*dT*dG*dA*d[5mC]*dT*dT*dG*dA*kA*k[5mC]*eT; antisense) [compound 548132] | 0% |
| 548133 (eA*eG*kA*dA*dT*dT*dT*dG*dA*d[5mC]*dT*dT*dG*kA*kA*e[5mC]; antisense) [compound 548133] | 23% |
| 548134 (e[5mC]*eA*kG*dA*dA*dT*dT*dT*dG*dA*d[5mC]*dT*dT*kG*kA*eA; antisense) [compound 548134] | 17% |
| 548135 (eT*e[5mC]*kA*dG*dA*dA*dT*dT*dT*dG*dA*d[5mC]*dT*kT*kG*eA; antisense) [compound 548135] | 46% |
| 548136 (eG*eG*k[5mC]*dT*d[5mC]*dA*dG*dA*dA*dT*dT*dT*dG*kA*k[5mC]*eT; antisense) [compound 548136] | 39% |
| 548137 (eA*eG*kG*d[5mC]*dT*d[5mC]*dA*dG*dA*dA*dT*dT*dT*kG*kA*e[5mC]; antisense) [compound 548137] | 62% |
| 548138 (e[5mC]*e[5mC]*k[5mC]*d[5mC]*dA*dG*dG*d[5mC]*dT*d[5mC]*dA*dG*dA*kA*kT*eT; antisense) [compound 548138] | 52% |
| 548139 (eA*eG*kA*dT*dG*dA*dG*dG*dA*d[5mC]*d[5mC]*d[5mC]*d[5mC]*k[5mC]*k[5mC]*eA; antisense) [compound 548139] | 56% |
| 548140 (e[5mC]*eA*kG*dA*dT*dG*dA*dG*dG*dA*d[5mC]*d[5mC]*d[5mC]*k[5mC]*k[5mC]*e[5mC]; antisense) [compound 548140] | 74% |
| 548141 (eG*e[5mC]*kA*dG*dA*dT*dG*dA*dG*dG*dA*d[5mC]*d[5mC]*k[5mC]*k[5mC]*e[5mC]; antisense) [compound 548141] | 66% |
| 548142 (eA*e[5mC]*kT*d[5mC]*dT*d[5mC]*d[5mC]*dA*dT*dG*d[5mC]*dT*dT*kT*kG*e[5mC]; antisense) [compound 548142] | 44% |
| 548143 (e[5mC]*eA*k[5mC]*dT*d[5mC]*dT*d[5mC]*d[5mC]*dA*dT*dG*d[5mC]*dT*kT*kT*eG; antisense) [compound 548143] | 39% |
| 548144 (eA*eT*kG*d[5mC]*d[5mC]*dA*d[5mC]*dT*d[5mC]*dT*d[5mC]*d[5mC]*dA*kT*kG*e[5mC]; antisense) [compound 548144] | 52% |
| 548145 (eA*eT*kG*d[5mC]*dA*dA*dA*dG*dA*dA*dG*dA*dT*kG*k[5mC]*e[5mC]; antisense) [compound 548145] | 63% |
| 548146 (eG*eT*k[5mC]*d[5mC]*dT*dT*dA*dG*dG*dA*dT*dG*d[5mC]*kA*kA*eA; antisense) [compound 548146] | 68% |
| 548148 (eG*e[5mC]*kA*dG*d[5mC]*dT*d[5mC]*dT*dG*dA*dG*dT*dG*k[5mC]*kA*e[5mC]; antisense) [compound 548148] | 66% |
| 548149 (eG*eA*k[5mC]*dA*dT*dT*dG*dT*d[5mC]*d[5mC]*dT*d[5mC]*dA*kG*k[5mC]*eA; antisense) [compound 548149] | 39% |
| 548150 (e[5mC]*eA*kG*dA*d[5mC]*dA*dT*dT*dG*dT*d[5mC]*d[5mC]*dT*k[5mC]*kA*eG; antisense) [compound 548150] | 60% |
